Experimental data published in patent US12011447B2, “Pharmaceutical composition for treating thyroid cancer comprising tyrosine kinase activity inhibitor as active ingredient” (Kyungpook National University Industry-Academic Cooperation …, priority 2017, dated 2024).

Key:
[1] = system: p-ERK; experiment: Western blot of phosphorylated ERK; assay type: cell-based, human; conditions: 8505C-PNIS-PCMV cells
Method: (§1) 8505C-PNIS-PCMV cells were treated with TKI-0266 and incubated for 24 hours, and then the cell pellet was washed twice with cold phosphate-buffered saline (hereinafter referred to as PBS). An RIPA buffer (Thermo Fisher Scientific, USA) containing a protease/phosphatase cocktail inhibitor kit (Thermo Fisher Scientific) was added to the cell pellet to lyse the cells. The lysed cells were gently vortexed three times at a time interval, and centrifuged at 13000xg at 4° C. to isolate a soluble protein. The isolated protein was quantified using a BCA protein assay kit (Thermo Fisher Scientific).
(§2) Equal amounts of proteins were separated by 10% SDS-PAGE (sodium dodecyl sulfate-polyacrylamide gel electrophoresis), and then the proteins were transferred to PVDF membranes (Millipore, USA). The PVDF membrane was blocked with 3% BSA (bovine serum albumin) in TBS containing Tween-20 (TBS-T) for 1 hour, and incubated with primary antibodies in 0.5% BSA overnight at 4° C. The next day, the PVDF membrane was incubated with HRP-conjugated secondary antibodies at room temperature for 1 hour, and washed three times with TBS-T. The protein bands were visualized using ECL detection reagent (GE Healthcare Life Sciences, Italy) and the Fusion FX chemiluminescence analyzer system (Vilber lourmat, France). […]

[2] = system: NIS (sodium iodide symporter); experiment: Western blot of endogenous NIS protein (total, membrane, cytosolic); assay type: cell-based, human
Method: as §1
Membrane protein and cytosolic protein were isolated using Mem-PET™ plus kit (Thermo Fisher scientific) according to the manufacturer's protocols. Briefly, the collected cell pellet was washed with a cell wash solution and centrifuged at 300xg for 5 minutes, and this washing and centrifugation process was repeated two times. After centrifugation, the supernatant was discarded, and a permeabilization buffer was added to the cell pellet, followed by vortexing. Thereafter, the cell pellet was left to stand at 4° C. for 10 minutes with continuous stirring. After centrifugation, the supernatant containing cytosolic protein was collected, and a solubilization buffer was added to the remaining cell pellet which was then left to stand at 4° C. for 10 minutes with continuous stirring. After centrifugation again at 300xg for 5 minutes, the membrane protein was transferred into a fresh tube.
as §2

[3] = system: cleaved caspase-3; experiment: Immunohistochemistry of cleaved caspase-3 in tumor tissue; assay type: in vivo, Balb/c nude mice; conditions: co-administered with 131I and TKI-0266
From the text: At the end of the experiment, the mice were sacrificed, and the tumors were isolated from the mouse's right flank and fixed overnight with 4% formalin. The isolated tumors were embedded in paraffin, sectioned to a 4-μm thickness, and mounted on slides. The tumor sections on the slides were de-paraffinized and stained with hematoxylin & eosin. For immunohistochemistry, NIS (Thermo Fisher Scientific; diluted at 1:200) and cleaved caspase-3 (Cell signaling; diluted at 1:200) antibodies were used.

[4] = system: anaplastic thyroid cancer xenograft (8505C-PNIS-PCMV); experiment: In vivo bioluminescence imaging of F-luc2 (NIS expression); parameters: species or system Balb/c nude mice; conditions: 50 mg/kg every day for 5 days, D-luciferin
Method: (§3) Female Balb/c nude mice, 5.5-week old with an average weight of 18.9±0.37 g (mean±standard deviation [SD]), were purchased (Hamamatsu, Shizuoka, Japan). The mice were acclimated under specific pathogen-free conditions for one week before starting the experiment, and were maintained at a temperature of 20 to 25° C. and a relative humidity of 40 to 70%. To establish anaplastic thyroid cancer xenograft mouse models, 8505C-PNIS-PCMV s (5×10^6) were mixed with Matrigel (Corning) at a ratio of 1:1 and injected subcutaneously into the right flank region of each mouse.
In order to examine whether the expression of NIS would be increased by TKI-0266, mice for use in the experiment were divided into two groups (n=5): the vehicle group; and the TKI-0266-administered group (50 mg/kg). 50 mg/kg of TKI-0266 was administered intravenously to the established anaplastic thyroid cancer xenograft mice every day for 5 days. On day 0 (before administration of TKI-0266) and day 6 after the start of administration of TKI-0266, to measure the R-luc signal with IVIS Lumina III, h-coelenterazine (15 μg/ml) was administered to the mice by intravenous injection. Next, D-luciferin (150 μg/ml) was administered intraperitoneally to the mice, and the bioluminescence image (hereinafter referred to as BLI) was acquired.

[5] = system: anaplastic thyroid cancer xenograft (8505C-PNIS-PCMV); experiment: Tumor growth inhibition in xenograft mice (tumor size, R-luc BLI); assay type: in vivo, Balb/c nude mice
Method: as §3
In addition, in order to evaluate the effect of TKI-0266 administration on the treatment of thyroid cancer, mice for use in the experiment were divided into four groups (n=5): the vehicle group; the ^131I-administered group (injected intraperitoneally with 1 mCi Na-^131I on day 2 of the experiment; the TKI-0266-administered group (injected intraperitoneally with 50 mg/kg of TKI-0266 for 5 days); and the group co-administered with ^131I and TKI-0266 (injected intraperitoneally with 50 mg/kg of TKI-0266 for 5 days, and injected intravenously with 1 mCi Na-^131I on day 2; n=5). To measure the degree of tumor growth, h-coelenterazine (15 μg/ml) was administered to the mice by intravenous injection, and then the R-luc activity was monitored by BLI every 5 days.

[6] = system: p-AKT; experiment: Western blot of phosphorylated AKT; assay type: cell-based, human; conditions: 8505C-PNIS-PCMV cells
Method: as §1, §2

`Cc1cc2c(N(C)C3CCCCC3)ncnc2s1` [TKI-0266] was tested, and the “level of phosphorylated ERK (p-ERK) protein” value [1] was “significantly decreased”, the “expression of endogenous NIS protein” value ([2]; 8505C-PNIS-PCMV cells, 24 hours, Western blot) was “significantly increased” and the “treatment concentration with the highest NIS protein expression” value ([2]; 8505C-PNIS-PCMV cells, Western blot) was 12.5 µM. The “expression of cytosolic NIS protein” value ([2]; cytosolic protein fraction) was “uptick”, the “expression of membrane NIS protein” value ([2]; membrane protein fraction) was “increased mainly in the cell membrane” and the “expression of cleaved caspase-3 indicating cell death (immunohistochemistry)” value [3] was “the highest”. The “activity of F-luc2 in vivo (NIS expression)” value [4] was “significantly increased”, the “tumor growth rate compared to vehicle group and 131I alone group” value ([5]; TKI-0266 alone, 50 mg/kg for 5 days) was “slow tumor growth rate” and the “tumor growth inhibitory effect among the four experimental groups” value ([5]; co-administered with 131I and TKI-0266) was “best tumor growth inhibitory effect”. For the same molecule, the R-luc signal intensity ([5]; co-administered with 131I and TKI-0266, day 6 after administration) was “decreased”, the R-luc signal intensity ([5]; co-administered with 131I and TKI-0266, day 11 after administration) was “restored” and the “tumor size on days 6 and 11” value ([5]; single agent administration) was “increase”. The “level of phosphorylated-AKT (p-AKT) protein vs vehicle” value [6] was “little difference”.
